# Where two headings read alike, the source gives them in different places.
# How the values were obtained:
# [1] = Oral developmental toxicity study in the rat; format: in vivo; details: female, CD [Crl:CD(SD)], rat, in vivo, oral; rats; read-out: NOAEL for maternal toxicity
# Protocol: (§1) Compound I was administered orally to four groups of 25 time-mated female CD®[Crl:CD®(SD)] rats/group at dose levels of 0 (vehicle, 1.0% carboxymethylcellulose/0.25% TWEEN® 80), 25, 50, or 100 mg/kg/day from Gestation Days (GD) 6 to 17. In addition, four groups of five time-mated females/group served as toxicokinetic (TK) animals and received the vehicle or test article in the same manner as the main study groups.
# [2] = system: time-mated female CD [Crl:CD(SD)] rats; experiment: Oral developmental toxicity study in the rat; format: in vivo
# Protocol: as §1
# [3] = Pharmacokinetics of a single ascending oral dose in healthy male subjects; format: in vivo, human; details: for AUC(0-inf) / AUC(0-t) / Cmax / half-life / Vd/F / Tmax: human, in vivo; for Vd/F: read-out: Vz/F
# Protocol: Methods: The study was a randomized, double-blind, placebo-controlled, single-ascending-dose trial. Forty-five healthy male subjects were enrolled into 1 of the 5 cohorts (active:placebo=7:2 per cohort). Subjects received single oral doses of 5 mg, 25 mg, 50 mg, 100 mg or 200 mg of unformulated Compound I in a capsule, or matching placebo.
# [4] = system: time-mated female New Zealand White Hra:(NZW)SPF rabbits; details: rabbit, in vivo, 10 mg/kg/day
# Description: Additionally, four groups of five animals/group served as toxicokinetic (TK) animals and received the vehicle or test article in the same manner and dose levels as the main study groups. All time-mated females arrived at the laboratory on GD 0, the day evidence of mating was observed.
# [5] = single oral dose 5 mg, unformulated in capsule, healthy male subjects, geometric mean
# [6] = single oral dose 25 mg, unformulated in capsule, healthy male subjects, geometric mean
# [7] = single oral dose 50 mg, unformulated in capsule, healthy male subjects, geometric mean
# [8] = single oral dose 100 mg, unformulated in capsule, healthy male subjects, geometric mean
# [9] = single oral dose 200 mg, unformulated in capsule, healthy male subjects, geometric mean
# [10] = male, single oral doses 5-200 mg
structure (smiles),measurement,setting,value
"O[C@H]1CC[C@H](Nc2ncc3nc(Nc4c(F)cc(F)cc4F)n([C@H]4CCOC4)c3n2)CC1 [Compound I, 4-((9-((3S)-tetrahydro-3-furanyl)-8-((2,4,6-trifluorophenyl)amino)-9H-purin-2-yl)amino)-trans-cyclohexanol]",NOAEL,[1],25 mg/kg/day
same,doses at which developmental effects were observed,"[2]; female, CD [Crl:CD(SD)], rat, in vivo",> 25 mg/kg/day
same,teratogenicity,"[2]; rat, in vivo",teratogenic
same,maternal toxicity,"[2]; rat, in vivo, 25 mg/kg/day",No maternal toxicity
same,"incidence of fetal malformations involving heart and aortic vessels, ribs, and/or vertebrae","[2]; rat, in vivo, 100 mg/kg/day",slight increase
same,post implantation loss index,"[2]; rat, in vivo, 100 mg/kg/day",increased
same,fetal weights lower than controls,"[2]; rat, in vivo, po, 25 mg/kg/day",about 6%
same,fetal body weights lower than controls,"[2]; rat, in vivo, po, 50 mg/kg/day",about 11%
same,fetal body weights lower than controls,"[2]; rat, in vivo, po, 100 mg/kg/day",~27%
same,NOEL for developmental toxicity,[2]; rats,25 mg/kg/day
same,"lowest observed effect level (LOEL), developmental effects",[2]; rats,25 mg/kg/day
same,AUC(0-inf),[3]; [5],625 ng·h/mL
same,AUC(0-t),[3]; [5],567 ng·h/mL
same,Cmax,[3]; [5],34.7 ng/mL
same,half-life,[3]; [5],19.1 h
same,Vd/F,[3]; [5],221 L
same,Tmax,"[3]; single oral dose 5 mg, unformulated in capsule, healthy male subjects, median (min-max), read-out: Tmax",1.5 h
same,AUC(0-inf),[3]; [6],3600 ng·h/mL
same,AUC(0-t),[3]; [6],3150 ng·h/mL
same,Cmax,[3]; [6],163 ng/mL
same,half-life,[3]; [6],24.1 h
same,Vd/F,[3]; [6],241 L
same,Tmax,"[3]; single oral dose 25 mg, unformulated in capsule, healthy male subjects, median (min-max), read-out: Tmax",1.5 h
same,AUC(0-inf),[3]; [7],7320 ng·h/mL
same,AUC(0-t),[3]; [7],6700 ng·h/mL
same,Cmax,[3]; [7],367 ng/mL
same,half-life,[3]; [7],20.4 h
same,Vd/F,[3]; [7],202 L
same,Tmax,"[3]; single oral dose 50 mg, unformulated in capsule, healthy male subjects, median (min-max), read-out: Tmax",2 h
same,AUC(0-inf),[3]; [8],13600 ng·h/mL
same,AUC(0-t),[3]; [8],10800 ng·h/mL
same,Cmax,[3]; [8],471 ng/mL
same,half-life,[3]; [8],27.5 h
same,Vd/F,[3]; [8],293 L
same,Tmax,"[3]; single oral dose 100 mg, unformulated in capsule, healthy male subjects, median (min-max), read-out: Tmax",2 h
same,AUC(0-inf),[3]; [9],26400 ng·h/mL
same,AUC(0-t),[3]; [9],23100 ng·h/mL
same,Cmax,[3]; [9],1430 ng/mL
same,half-life,[3]; [9],25 h
same,Vd/F,[3]; [9],273 L
same,Tmax,"[3]; single oral dose 200 mg, unformulated in capsule, healthy male subjects, median (min-max), read-out: Tmax",1.5 h
same,AUC(0-inf),[3]; [10],600 to 27000 ng·h/mL
same,AUC(0-t),[3]; [10],500 to 24000 ng·h/mL
same,Cmax,[3]; [10],30 to 1500 ng/mL
same,half-life,[3]; [10],19 to 28 h
same,Tmax,"[3]; male, single oral doses 5-200 mg, unformulated in a capsule, healthy males, read-out: median Tmax",1.5 to 2 h
same,Vd/F,[3]; [10],200 to 300 L
same,urinary excretion of unchanged Compound I,"[3]; over 72 hrs post-dose, single oral doses",9-13 % of the administered dose
same,CLF,[3]; [5],133.36 mL/min
same,CLF,[3]; [6],115.58 mL/min
same,CLF,[3]; [7],113.88 mL/min
same,CLF,[3]; [8],122.89 mL/min
same,CLF,[3]; [9],126.02 mL/min
same,CLF,[3]; single oral doses 5-200 mg,100 to 140 mL/min
same,maternal or developmental toxicity,[4],No maternal or developmental toxicity
